Assay results from patent publication US9194864B2, “Screening methods employing insects with blood brain barrier” (Entomopharm ApS, priority 2008, dated 2015).
Read-outs that look alike come from different tables or passages of the source.

Experiments:
[1] = in vivo; details: male, Locusta migratoria (grasshopper/locust)
[2] = Hemolymph concentration after injection into grasshoppers, measured by LCMS; details: male, Locusta migratoria (grasshopper/locust), in vivo
[3] = cited from earlier work

O=C1CC2(CCCC2)CC(=O)N1CCCCN1CCN(c2ncccn2)CC1 [buspirone]
concentration at 5 min ([1]; 168 µg per insect): < 20 ng/mL
concentration at 5 min ([2]; 168 µg per insect): 4500 ng/mL

CN1CCN2c3ccccc3Cc3ccccc3C2C1 (stereo not drawn) [mianserin]
penetration of the grasshopper blood brain barrier (BBB), conclusion in words (in vivo): penetrates the blood brain barrier (BBB) in grasshoppers
factor by which measured brain concentration is increased when the neural lamella is included (male, Locusta migratoria (grasshopper/locust), in vivo, 5 min): 3

NCCc1c[nH]c2ccc(O)cc12 [serotonin]
penetration of the grasshopper blood brain barrier (BBB), conclusion in words (Locusta migratoria, injection): only penetrates the grasshopper BBB to a very low extend, if any at all
endogenous level in the brain (concentration in brain supernatant) (no injection, washed in saline, 3 brains in one tube): 20 ng/mL
concentration at 5 min ([1]; 12.6 µg per insect, average concentration in brain supernatant, 20 μl of 630 μg/ml injected, 5 minutes, washed in saline, neural lamella included, 3 brains per tube): 86.5 ng/mL
BBB penetration in vertebrates, in words [3]: very low BBB penetration
concentration at 5 min ([2]; 12.6 µg per insect): 4700 ng/mL
